Legend:
Staphylococcus aureus = assay: Zones of inhibition analysis of nitrile rubber film swatches on seeded agar; assay type: cell-based; settings: for antibacterial properties of polymer film (in words): incorporated into the nitrile rubber latex dip bath; for sides of the film exhibiting antibacterial activity (in words): PHMB in coagulation layer, triclosan in nitrile rubber
Description: Tests were carried out in order to assess which combination of biocidal agents were compatible with the glove manufacturing process and gave the best antimicrobial performance. Small rectangles of nitrile rubber latex were prepared by dipping clean microscope slides into warm coagulant solution, withdrawing them and drying them in an oven at 110° C. The slides were allowed to cool before dipping into the nitrile rubber latex dispersion. They were withdrawn, allowed to drain, and placed in an oven at 110° C. After cooling the layer of cured nitrile rubber was carefully removed from the microscope slide and sent for testing to determine their antimicrobial properties. Active ingredients were incorporated into the coagulant and nitrile polymer latex dispersion as appropriate.
The qualitative measure of their antibacterial performance was carried out by zones of inhibition analysis. The procedure used was for each sample to be assayed against Staphylococcus aureus, a bacterium commonly found on the skin of humans, by comparing their zones of inhibition on an agar preparation.
Seeded agar plates were prepared by adding 0.1 ml of an overnight broth culture into a clean, sterile petri dish, adding approximately 20 ml of an agar preparation that had been sterilised and cooled to 45° C. before use. The selective agar used was Tryptone Soy Agar. The challenge organism was mixed into the agar by gentle swirling to provide a homogeneous suspension. The plates were allowed to set for approximately one hour in a cool dry place.
Swatches of the polymer glove material were cut to approximately 2 cm square and placed on the seeded agar. The petri dishes were then placed in an incubator overnight at 37° C. Migration of the chemicals toxic to the challenge organisms creates a zone around the edge of the swatch where growth of the challenge organism is inhibited. The relative distance of the zone inhibition from the edge of the swatch for each organism gives an indication of the antibacterial efficacy of the products.

[1] = cited from earlier work
[2] = Experiment 3, 0.1% added to coagulant solution
[3] = Experiment 3, 1.0% added to coagulant solution
[4] = Experiment 3, added to the calcium containing coagulant solution, agent on one side of the film
[5] = Experiment 2, 0.1% added to nitrile rubber
[6] = Experiment 2, 0.1% in nitrile rubber, compared with control sample 12B/088
[7] = Experiment 4, incorporated into the coagulation layer / coagulant solution

Row | Compound | ZONE OF INHIBITION (Staphylococcus aureus; [2]) [mm] | ZONE OF INHIBITION (Staphylococcus aureus; [3]) [mm] | antibacterial performance (in words) (Staphylococcus aureus; [4]) | antibacterial properties of polymer film (in words) (Staphylococcus aureus; Experiment 1) | ZONE OF INHIBITION (Staphylococcus aureus; [5]) [mm] | antibacterial effectiveness (in words) (Staphylococcus aureus; [6]) | sides of the film exhibiting antibacterial activity (in words) (Staphylococcus aureus; Experiment 4) | antibacterial performance (in words) (Staphylococcus aureus; [7]) | other results
1 | [H]/N=C(\N/C(=N/[H])NCCCCCCNC(=N)NC(=N)Nc1ccc(Cl)cc1)Nc1ccc(Cl)cc1 [Chlorhexidine] | 11 | 18 | effective antibacterial performance |  |  |  |  |  | 
2 | Cn1sc(Cl)cc1=O [Methylchloroisothiazolinone] |  |  |  |  |  |  |  |  | antibacterial effectiveness (in words) (Staphylococcus aureus; Experiment 3, 0.5%): effective antibacterial agent; ZONE OF INHIBITION (Staphylococcus aureus; Experiment 3, 0.5% added to nitrile rubber): 15 mm
3 | O=c1[nH]sc2ccccc12 [Proxel (BIT), 1,2-Benzisothiazol-3((2H)-one] |  |  |  | exhibited antibacterial properties | 15 | significantly more effective |  |  | ZONE OF INHIBITION (Staphylococcus aureus; Experiment 1, 0.15% added to nitrile rubber): 9 mm
4 | Oc1cc(Cl)ccc1Oc1ccc(Cl)cc1Cl [Triclosan] | 10 |  | exhibited antibacterial performance but was not as effective as when it was incorporated into the nitrile rubber layer | exhibited antibacterial properties | 20 | significantly more effective | both sides of the film exhibit antibacterial activity |  | solubility in water [1]: 0.0012 g per liter; ZONE OF INHIBITION (Staphylococcus aureus; Experiment 1, 0.05% added to nitrile rubber): 15 mm; ZONE OF INHIBITION (Staphylococcus aureus; Experiment 2, 0.25% added to nitrile rubber): 18 mm; ZONE OF INHIBITION (Staphylococcus aureus; Experiment 3, 0.05% added to nitrile rubber): 12 mm; antibacterial effectiveness (in words) (Staphylococcus aureus; Experiment 3, 0.05% in the nitrile rubber film (run 12C/064)): effective; ZONE OF INHIBITION (Staphylococcus aureus; Experiment 3, 0.1% added to nitrile rubber): 17 mm; ZONE OF INHIBITION (Staphylococcus aureus; Experiment 3, 0.5% added to coagulant solution): 12 mm; ZONE OF INHIBITION (Staphylococcus aureus; Experiment 4, 0.1% added to nitrile rubber): 16 mm; antibacterial performance (in words) (Staphylococcus aureus; Experiment 4, incorporated into the nitrile rubber): good antibacterial performance
5 | Benzalkonium chloride [BTC 50E] |  | 30 | effective antibacterial performance |  |  |  |  | good results | ZONE OF INHIBITION (Staphylococcus aureus; Experiment 3, 0.22% added to coagulant solution): 14 mm; ZONE OF INHIBITION (Staphylococcus aureus; Experiment 4, 0.25% added to coagulant solution): 8 mm
6 | Poly(hexamethylene biguanide) [PHMB] |  |  |  |  |  |  | only one side of the polymer film exhibits antibacterial performance | good results | ZONE OF INHIBITION (Staphylococcus aureus; Experiment 4, 0.3% added to coagulant solution, face down as normal): 16 mm; ZONE OF INHIBITION (Staphylococcus aureus; Experiment 4, 0.3% added to coagulant solution, film placed face up on the agar plate, biocide not on the side on the agar gel): 5 mm
